System: M17_3SYN cells
Test: Paraquat-induced cytotoxicity (LDH) in α-synuclein over-expressing M17_3SYN neuroblastoma cells
Assay type: cell-based
Conditions: Homo sapiens, Neuroblastoma cell, 48 h, 6 mM Paraquat, 2 days, LDH toxicity inhibition, read-out: SYN EC50
Excerpt: A α-synuclein expression plasmid was constructed by subcloning the NcoI/XhoI fragment from 212T-SYN(WT) (Griffioen et al., Biochem Biophys Acta (2006) 1762(3):312-318) containing the cDNA of human wild type α-synuclein correspondingly into a standard mammalian expression vector pcDNA3.1 resulting in plasmid pcDNA3.1-SYNwt. Plasmids pcDNA3.1 and pcDNA3.1-SYNwt were transfected into human neuroblastoma cells (BE-M17; ATCC No. CRL-2267™) using lipofectamine reagent and subsequently, independent clonal cell lines with the plasmids stably integrated into the genome were selected by antibiotic resistance selection (Geneticin (G418)), resulting in cell lines M17.pcDNA3 and M17_3SYN. Overexpression of α-synuclein in the M17_3SYN cell line was confirmed by Western blot analysis.
Due to the high levels of α-synuclein, M17_3SYN cells were sensitive to paraquat, a well-known risk factor Parkinson's disease and of synuclein-dependent neuronal degeneration. Cytotoxicity of cells was measured by quantification of lactate dehydrogenase (LDH) levels. In dead cells, LDH leaked out of the cells into the medium due to a loss of plasma-membrane integrity.
Three days preceding the experiment, primary pre-cultures of M17.pcDNA3 (as possible control) and M17_3SYN cells were prepared, starting from a stock culture, at a density of 20.000-40.000 cells/cm2 in culture medium (Opti-MEM® Reduced Serum Medium with Phenol Red (Invitrogen, Cat. 31985-047) supplemented with 10% FCS, 1 mM sodium pyruvate, 1×NEAA, 500 μg/ml G418 and 0.5× antibiotic/antimycotic (ABAM)). 3 days later these primary pre-cultures were used as a starting point to make secondary pre-cultures at a density of 50.000-100.000 cells/cm^2. At the day of the experiment these secondary precultures were diluted to ˜0.5·10^6 cells/ml in detection medium (Opti-MEM® Reduced-Serum Medium without Phenol Red (Invitrogen, Cat. 11085-021) supplemented with 10% FCS, 1 mM sodium pyruvate, 1×NEAA, 500 μg/ml G418 and 0.5×ABAM) and 60 μL of this suspension was dispensed per well into a 96-well microtiter plate. After 3 hours of incubation at 37° C./5% CO2 an equal volume of detection medium containing a final concentration of 6 mM Paraquat was added and subsequently incubated for 2 days at 37° C./5% CO2. Then LDH activity was determined using the Promega Cytotox 96 Non-Radioactive cytotoxicity assay (Promega, Cat. G1780), according to the manufacturer's instructions. Cytotoxicity was defined as the ratio of LDH relative to the total LDH in the cells and supernatant.
The assay described above using the M17_3SYN cell line allowed screening compounds for their ability to decrease cytotoxicity in PQ-challenged cells. Compounds of the invention were tested for their ability to decrease toxicity at different concentrations, ranging from low non-effective concentrations to high effective concentrations. Afterwards, a dose-dependent inhibition curve was used to calculate the EC50. A compound was considered to be active in this test when it inhibited toxicity by more than 20% relative to untreated M17_3SYN cells at a concentration of […] or lower.

Row | SMILES | EC50 [µM]
1 | COc1ccc(S(=O)(=O)N2CCC3(CC2)CN(S(=O)(=O)c2ccc(OC)cc2)C3)cc1 [Cmpd001, 2,7-Bis((4-methoxyphenyl)sulfonyl)-2,7-diazaspiro[3.5]nonane] | 0.0011
2 | O=S(=O)(c1cc(F)cc(F)c1)N1CCC2(CC1)CN(c1nc(Cc3ccc(F)cc3)ns1)C2 [Cmpd083, 5-(7-((3,5-Difluorophenyl)sulfonyl)-2,7-diazaspiro[3.5]nonan-2-yl)-3-(4-fluorobenzyl)-1,2,4-thiadiazole] | 0.375
3 | COC(=O)c1cccc(S(=O)(=O)N2CCC3(CC2)CN(c2nc(Cc4ccc(F)cc4)ns2)C3)c1 [Cmpd084, Methyl 3-((2-(3-(4-fluorobenzyl)-1,2,4-thiadiazol-5-yl)-2,7-diazaspiro[3.5]nonan-7-yl)sulfonyl)benzoate] | 0.383
4 | O=S(=O)(c1ccc(OC(F)F)cc1)N1CCC2(CC1)CN(c1nc(Cc3ccc(F)cc3)ns1)C2 [Cmpd085, 5-(7-((4-(Difluoromethoxy)phenyl)sulfonyl)-2,7-diazaspiro[3.5]nonan-2-yl)-3-(4-fluorobenzyl)-1,2,4-thiadiazole] | 0.541
5 | COc1ccc(F)cc1S(=O)(=O)N1CCC2(CC1)CN(c1nc(Cc3ccc(F)cc3)ns1)C2 [Cmpd086, 5-(7-((5-Fluoro-2-methoxyphenyl)sulfonyl)-2,7-diazaspiro[3.5]nonan-2-yl)-3-(4-fluorobenzyl)-1,2,4-thiadiazole] | 0.3
6 | Cn1cc(S(=O)(=O)N2CCC3(CC2)CN(c2nc(Cc4ccc(F)cc4)ns2)C3)cn1 [Cmpd090, 3-(4-Fluorobenzyl)-5-(7-((1-methyl-1H-pyrazol-4-yl)sulfonyl)-2,7-diazaspiro[3.5]nonan-2-yl)-1,2,4-thiadiazole] | 0.285
7 | Cc1ccc(S(=O)(=O)N2CCC3(CC2)CN(c2nc(Cc4ccc(F)cc4)ns2)C3)s1 [Cmpd095, 3-(4-Fluorobenzyl)-5-(7-((5-methylthiophen-2-yl)sulfonyl)-2,7-diazaspiro[3.5]nonan-2-yl)-1,2,4-thiadiazole] | 0.377
8 | O=S(=O)(CC1CCCCC1)N1CCC2(CC1)CN(c1nc(Cc3ccc(F)cc3)ns1)C2 [Cmpd097, 5-(7-((Cyclohexylmethyl)sulfonyl)-2,7-diazaspiro[3.5]nonan-2-yl)-3-(4-fluorobenzyl)-1,2,4-thiadiazole] | 0.19
9 | O=S(=O)(N1CCOCC1)N1CCC2(CC1)CN(c1nc(Cc3ccc(F)cc3)ns1)C2 [Cmpd098, 4-((2-(3-(4-Fluorobenzyl)-1,2,4-thiadiazol-5-yl)-2,7-diazaspiro[3.5]nonan-7-yl)sulfonyl)morpholine] | 1.19

System: INS-1E cells
Test: Cytokine-induced apoptosis (caspase-3/7 activation, Caspase-Glo 3/7) in INS-1E rat insulinoma cells
Assay type: cell-based
Conditions: cytokine mix (IFN-γ, IL-1, TNF-α), 24 hours, caspase 3/7 activity, read-out: CYT EC50
Excerpt: The INS-1E cell line, a rat insulinoma cell line, has been characterized extensively. INS-1E cells respond to glucose by secreting insulin and, unlike most other immortalized n-cell lines, they do this in a consistent manner over time. The cells are sensitive to hyperglycemia-, free fatty acid (FFA)-, and cytokine-induced stress. Prolonged stress ultimately leads to induction of apoptotic pathways and, if stress is not counter-acted, to apoptosis. Caspase-3 and -7 play a central role downstream where various apoptotic pathways merge. As such, activation (i.e. cleavage) of these caspases forms a relevant primary read-out to evaluate protective activity of compounds against stress-induced apoptosis.
To evaluate the efficacy of different compounds to prevent induction of apoptosis, an in vitro screen was developed in which INS-1E cells were exposed to a cytokine mix (IFN-γ, 5 ng/ml; IL-1, 20 pg/ml; TNF-α, 0.25 ng/ml). The degree of induction of apoptosis was evaluated using a substrate for cleaved caspase-3 and -7, i.e. a proluminescent caspase-3/7 DEVD aminoluciferin substrate with a thermostable luciferase (Caspase-Glo® 3/7 assay; Promega, cat. G8092).
On day 0, INS-1E cells were plated in a white-walled 96-well microplate (Greiner, cat. 655098) at 20,000 cells per well in 100 μl complete medium (RPMI containing 11 mM glucose supplemented with 5% FCS, 100 IU/ml penicillin, 100 μg/ml streptomycin, 10 mM HEPES, 1 mM Sodium Pyruvate and 50 μM 2-Mercapto-ethanol). On day 2, 100 μl medium containing cytokines and compound dissolved in DMSO was added to the cells. Wells without cytokines containing DMSO and wells with cytokines and DMSO were included to evaluate the degree of caspase 3/7 activation by the cytokine mix. After 24 hours exposure to cytokines and/or compound, Caspase-Glo® 3/7 reagent was added to the cells and caspase activity was determined by measuring luminescence.
To evaluate compound efficacy, the “toxicity window” was calculated by subtracting caspase activity of wells without stressor from activity of wells with stressor but without compound. The amount of caspase activity in the latter wells was normalized to 1 and used as reference. Subsequently, caspase activity in the wells with stressor and varying concentrations of compound was calculated relative to the wells without compound. Plotting caspase activity vs the log 10 of the concentration of compound permitted calculation of the EC50 values for the compounds which typically lied between 0.0001 and 10 μM. Compounds with an EC50<10 μM were considered active.

Row | SMILES | EC50 [µM]
10 | COc1ccc(S(=O)(=O)N2CCC3(CC2)CN(C(=O)Cc2ccccc2)C3)cc1 [Cmpd010, 1-(7-((4-Methoxyphenyl)sulfonyl)-2,7-diazaspiro[3.5]nonan-2-yl)-2-phenylethanone] | 0.178
11 | COc1ccc(S(=O)(=O)N2CCC3(CC2)CN(c2nc(-c4ccc(Cl)cc4)ns2)C3)cc1 [Cmpd039, 3-(4-Chlorophenyl)-5-(7-((4-methoxyphenyl)sulfonyl)-2,7-diazaspiro[3.5]nonan-2-yl)-1,2,4-thiadiazole] | 0.1
12 | CCOc1ccc(S(=O)(=O)N2CCC3(CC2)CN(S(=O)(=O)c2ccc(OC(F)F)cc2)C3)cc1 [Cmpd049, 2-((4-(Difluoromethoxy)phenyl)sulfonyl)-7-((4-ethoxyphenyl)sulfonyl)-2,7-diazaspiro[3.5]nonane] | 0.09

Other lines, results leading:

Row | EC50 [µM] | SMILES
13 | 0.201 | COc1ccc(S(=O)(=O)N2CCC3(CC2)CN(S(=O)(=O)c2ccc(OC)cc2)C3)cc1 [Cmpd001, 2,7-Bis((4-methoxyphenyl)sulfonyl)-2,7-diazaspiro[3.5]nonane]
14 | 0.04 | COc1ccc(S(=O)(=O)N2CCC3(CC2)CN(S(=O)(=O)c2ccc(OC(F)F)cc2)C3)cc1 [Cmpd003, 2-((4-(Difluoromethoxy)phenyl)sulfonyl)-7-((4-methoxyphenyl)sulfonyl)-2,7-diazaspiro[3.5]nonane]
15 | 0.178 | COc1ccc(S(=O)(=O)N2CCC3(CC2)CN(C(=O)Cc2ccc(F)cc2)C3)cc1 [Cmpd006, 2-(4-Fluorophenyl)-1-(7-((4-methoxyphenyl)sulfonyl)-2,7-diazaspiro[3.5]nonan-2-yl)ethanone]
16 | 0.503 | COc1ccc(S(=O)(=O)N2CCC3(CC2)CN(C(=O)C2CCOc4ccccc42)C3)cc1 (stereo not drawn) [Cmpd021, Chroman-4-yl(7-((4-methoxyphenyl)sulfonyl)-2,7-diazaspiro[3.5]nonan-2-yl)methanone]
17 | 0.317 | COc1ccc(S(=O)(=O)N2CCC3(CC2)CN(c2nc(-c4cnccn4)ns2)C3)cc1 [Cmpd038, 5-(7-((4-Methoxyphenyl)sulfonyl)-2,7-diazaspiro[3.5]nonan-2-yl)-3-(pyrazin-2-yl)-1,2,4-thiadiazole]
18 | 0.041 | CCOc1ccc(S(=O)(=O)N2CC3(CCN(S(=O)(=O)c4ccc(OC(F)F)cc4)CC3)C2)cc1 [Cmpd042, 7-((4-(Difluoromethoxy)phenyl)sulfonyl)-2-((4-ethoxyphenyl)sulfonyl)-2,7-diazaspiro[3.5]nonane]
19 | 0.086 | O=S(=O)(c1ccc(OC(F)F)cc1)N1CCC2(CC1)CN(S(=O)(=O)c1ccc(Cl)cc1)C2 [Cmpd043, 2-((4-Chlorophenyl)sulfonyl)-7-((4-(difluoromethoxy)phenyl)sulfonyl)-2,7-diazaspiro[3.5]nonane]
20 | 0.188 | O=S(=O)(c1ccc(OC(F)F)cc1)N1CCC2(CC1)CN(S(=O)(=O)c1ccc(F)cc1)C2 [Cmpd044, 7-((4-(Difluoromethoxy)phenyl)sulfonyl)-2-((4-fluorophenyl)sulfonyl)-2,7-diazaspiro[3.5]nonane]
21 | 0.014 | COc1ccc(S(=O)(=O)N2CC3(CCN(S(=O)(=O)c4ccc(Cl)cc4)CC3)C2)cc1 [Cmpd047, 7-((4-Chlorophenyl)sulfonyl)-2-((4-methoxyphenyl)sulfonyl)-2,7-diazaspiro[3.5]nonane]
22 | 0.061 | O=S(=O)(c1ccc(OC(F)F)cc1)N1CCC2(CC1)CN(S(=O)(=O)c1ccc(OC(F)F)cc1)C2 [Cmpd048, 2,7-Bis((4-(difluoromethoxy)phenyl)sulfonyl)-2,7-diazaspiro[3.5]nonane]
23 | 0.103 | O=S(=O)(c1ccc(Cl)cc1)N1CCC2(CC1)CN(S(=O)(=O)c1ccc(OC(F)F)cc1)C2 [Cmpd050, 7-((4-Chlorophenyl)sulfonyl)-2-((4-(difluoromethoxy)phenyl)sulfonyl)-2,7-diazaspiro[3.5]nonane]
24 | 0.033 | O=S(=O)(c1ccc(F)cc1)N1CCC2(CC1)CN(S(=O)(=O)c1ccc(OC(F)F)cc1)C2 [Cmpd051, 2-((4-(Difluoromethoxy)phenyl)sulfonyl)-7-((4-fluorophenyl)sulfonyl)-2,7-diazaspiro[3.5]nonane]

Reference: patent US9617264B2, “2,7-diazaspiro[3.5]nonane compounds” (REMYND NV, priority 2014, dated 2017)
